# Experimental data published in patent publication US20190255073A1, “ESTERS OF 3-POLYAMINE DERIVATIVES OF BILE ACIDS FOR THE TREATMENT OF INFECTIONS” (VIRBAC, priority 2016, published 2019).
# Key:
# [1] = system: S. aureus (340); assay: MIC determination by microplate dilution, S. aureus animal strain; type: cell-based, Staphylococcus aureus; settings: Staphylococcus aureus, Gram-positive, Mueller-Hinton medium, 24 h, 37° C.
# Outline: (§1)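 MH broth; inoculum OD 0.01/well; compound stock 5 mg/mL (DMSO:MeOH 1:1), serial 1/2 dilutions; 37 °C, 24 h, humid; OD 620 nm; n=2.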
# [2] = system: E. coli (1956); assay: MIC determination by microplate dilution, E. coli animal strain; type: cell-based, Escherichia coli; settings: Escherichia coli, Gram-negative, Mueller-Hinton medium, 24 h, 37° C.
# Outline: as §1
# [3] = system: P. aeruginosa (1051575); assay: MIC determination by microplate dilution, P. aeruginosa animal strain; type: cell-based, Pseudomonas aeruginosa; settings: Pseudomonas aeruginosa, Gram-negative, Mueller-Hinton medium, 24 h, 37° C.
# Outline: as §1
# [4] = system: S. aureus ATCC25923; assay: MIC determination by microplate dilution, S. aureus human strain; type: cell-based, Staphylococcus aureus; settings: Staphylococcus aureus, ATCC25923, Gram-positive, Mueller-Hinton medium, 24 h, 37° C.
# Outline: as §1
# [5] = system: CHO-K1 cells; assay: WST1 cytotoxicity test on CHO-K1 cells; type: cell-based, Chinese hamster; settings: Cricetulus griseus, CHO-K1, read-out: IC50 (μg/mL) CHO
# Outline: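 Viability read-out: WST-1 tetrazolium cleavage by mitochondrial dehydrogenases, 20 min at 37 °C, A450. Compounds added at rising concentrations, in duplicate, to CHO-K1 cells for 24 h (37 °C, 5% CO2). IC50, the concentration halving viability, fitted by nonlinear regression.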
# [6] = system: E. coli ATCC28922; assay: MIC determination by microplate dilution, E. coli human strain; type: cell-based, Escherichia coli; settings: Escherichia coli, ATCC28922, Gram-negative, Mueller-Hinton medium, 24 h, 37° C.
# Outline: as §1
# [7] = system: P. aeruginosa (1051575); assay: Potentiation of the doxycycline activity at 2 μg/mL; type: cell-based, Pseudomonas aeruginosa; settings: in combination with doxycycline 2 μg/mL; 24 h, 37°
# [8] = system: P. aeruginosa (1051575); assay: Potentiation of erythromycin activity; type: cell-based, Pseudomonas aeruginosa; settings: concentration of compound required with erythromycin 2 μg/mL
# Protocol: This method requires the use of a 96-well plate: 100 μL of a liquid culture medium are placed in each well and then seeded with the microbial suspension prepared previously. The required volume to be seeded is calculated for an OD of 0.01, which corresponds to about 5×10^6 bacteria in each well. In this plate, the first line corresponds to a negative control (200 μL of sterile culture medium in each well), the second line corresponds to a positive control (100 μL of sterile culture medium+100 μL of the bacterial suspension), and the third line contains 192 μL of culture medium; 8 μL of compound of formula (I) to be tested are placed in each well. Thereafter, a cascade dilution is performed from this line. […] (1 mg dissolved in 20 mL) are then added to each well of the lines 3 to 8 to obtain a final antibiotic concentration of 2 μg/mL. 92 μL of bacterial suspension are then added to lines 3 to 8. […] After 24 hours of incubation at 37° C., 40 μL of nitro tetrazolium iodide are added to each well to reveal the presence of live bacteria by staining the medium pink.
# The procedure is identical to that indicated in Example 5 above. 8 μL of an antibiotic solution under consideration (1 mg dissolved in 20 mL) are added to obtain a final antibiotic concentration of 2 μg/mL instead of 8 μL of a doxycycline solution.
# The results are given in table V. They indicate the concentration of compound of formula (I) required to be able to restore the activity of the antibiotic under consideration.
# [9] = system: S. intermedius (1051997); assay: MIC determination by microplate dilution, S. intermedius animal strain; type: cell-based, Staphylococcus intermedius; settings: Staphylococcus intermedius, Gram-positive, Mueller-Hinton medium, 24 h, 37° C.
# Outline: as §1
compound,measurement,setting,value
"CC(C)OC(=O)CC[C@@H](C)[C@H]1CCC2C3C(CC[C@@]21C)[C@@]1(C)CC[C@H](NCCCN(CCCN)CCCN)CC1C[C@H]3O (stereo partly drawn) [(39), isopropyl 3β-(tris(3-aminopropyl)amine)chenodeoxycholate]",MIC,[1],7 µg/mL
same,MIC,[2],28 µg/mL
same,MIC,[3],28 µg/mL
same,MIC,[4],7 µg/mL
same,IC50,[5],110 µg/mL
same,MIC,[6],14 µg/mL
same,MIC - P. aeruginosa (1051575): content of compound of formula (I) to restore the doxycycline activity (at 2 μg/mL),[7],2 µg/mL
same,"MIC P. aeruginosa (1051575), compound + erythromycin",[8],30 µg/mL
same,MIC,[9],3.5 µg/mL
